Measured values: patent US11141452B2, “Bifunctional compounds for relief of pain comprising an opioid receptor agonist moiety and a NK1 receptor antagonist moiety and methods for treating pain” (THE ARIZONA BOARD OF REGENTS ON BEHALF OF THE UNIVERSITY OF …, priority 2014, dated 2021)
“And” between values parts separate entries of the source, which are not always exact repeats. Equal entries are not always repeated. Non-standard residues stand in square brackets, D forms with d. Residues, ends and D or L forms follow the SMILES beside them. *: point of attachment. NH(3,5-(CF3)2-benzyl) = FC(F)(F)c1cc(CN*)cc(C(F)(F)F)c1; Dmt = Cc1cc(O)cc(C)c1C[C@H](N)C(=O)O; NMeF = CN[C@@H](Cc1ccccc1)C(=O)O; Orn = NCCC[C@H](N)C(=O)O

Experiments:
hNK1 = biological target: T1, hNK1 (Homo sapiens, UniProt P25103); assay: hNK1/CHO cell membrane radioligand binding assay ([3H]SP); settings: for Ki: Ki^hNK1 (nM), hNK1/CHO membranes, [3H]SP; for Ki^hNK1/Ki^rNK1: ratio human/rat NK1
T1 construct: expressed in transfected cells; host or cells: CHO
T1 sequence (P25103 whole entry): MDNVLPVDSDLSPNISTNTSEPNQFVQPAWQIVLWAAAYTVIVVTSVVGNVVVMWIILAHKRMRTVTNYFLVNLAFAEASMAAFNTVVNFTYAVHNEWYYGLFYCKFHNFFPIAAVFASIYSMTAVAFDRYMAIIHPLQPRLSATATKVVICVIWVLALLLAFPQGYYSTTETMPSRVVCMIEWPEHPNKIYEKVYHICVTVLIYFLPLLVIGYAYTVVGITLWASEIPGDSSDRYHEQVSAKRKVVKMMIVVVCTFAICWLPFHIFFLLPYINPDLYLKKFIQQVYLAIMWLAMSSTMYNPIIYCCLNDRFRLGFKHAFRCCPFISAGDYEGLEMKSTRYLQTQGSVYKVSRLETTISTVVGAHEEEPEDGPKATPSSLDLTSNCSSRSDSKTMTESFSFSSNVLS

DOR = DOR (Homo sapiens, UniProt P41143); assay: Radioligand binding assay at δ opioid receptor; settings: for Ki: Ki^δ (nM)
DOR, sequence (P41143 whole entry): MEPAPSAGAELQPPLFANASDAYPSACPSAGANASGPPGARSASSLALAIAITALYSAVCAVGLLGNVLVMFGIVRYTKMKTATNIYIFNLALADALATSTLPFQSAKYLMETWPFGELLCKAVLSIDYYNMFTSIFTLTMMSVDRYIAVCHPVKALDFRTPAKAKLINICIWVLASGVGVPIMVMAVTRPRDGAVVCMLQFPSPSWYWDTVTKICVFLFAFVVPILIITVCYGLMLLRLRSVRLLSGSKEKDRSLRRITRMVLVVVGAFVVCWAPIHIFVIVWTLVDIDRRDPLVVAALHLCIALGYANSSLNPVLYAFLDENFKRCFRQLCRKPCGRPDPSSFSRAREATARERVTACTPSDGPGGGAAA
Protocol: (§1) Binding affinities of these ligands were measured on radioligand binding assays. […] ([43]).

MOR = assay: Radioligand binding assay at μ opioid receptor; settings: for Log[IC50±] (μ): log IC50 ± error; for Ki^μ/Ki^δ: ratio of binding affinities MOR/DOR
Protocol: as §1

## CC(C)C[C@H](NC(=O)[C@@H]1CCCN1C(=O)[C@@H](CCC(N)=O)NC(=O)[C@H](Cc1ccccc1)NC(=O)CNC(=O)[C@@H](C)NC(=O)[C@@H](N)Cc1ccc(O)cc1)C(=O)N[C@@H](Cc1c[nH]c2ccccc12)C(=O)NCc1cc(C(F)(F)F)cc(C(F)(F)F)c1 [AKG103]
hNK1
  Ki: 2.1 nM
DOR
  IC50: 155 nM
  Ki: 72 nM
MOR
  Ki: 120 nM and 116 nM
  Log[IC50±] (μ): −6.57 ± 0.05

## CSCC[C@H](NC(=O)[C@H](Cc1ccccc1)N(C)C(=O)CNC(=O)[C@@H](C)NC(=O)[C@@H](N)Cc1ccc(O)cc1)C(=O)N1CCC[C@H]1C(=O)N[C@@H](CC(C)C)C(=O)N[C@@H](Cc1c[nH]c2ccccc12)C(=O)NCc1cc(C(F)(F)F)cc(C(F)(F)F)c1 [AKG106]
hNK1
  Ki^hNK1/Ki^rNK1: 1/7

## CSCC[C@H](NC(=O)[C@H](Cc1ccccc1)N(C)C(=O)CNC(=O)[C@@H](C)NC(=O)[C@@H](N)Cc1c(C)cc(O)cc1C)C(=O)N1CCC[C@H]1C(=O)N[C@@H](CC(C)C)C(=O)N[C@@H](Cc1c[nH]c2ccccc12)C(=O)NCc1cc(C(F)(F)F)cc(C(F)(F)F)c1 [AKG107]
hNK1
  Ki^hNK1/Ki^rNK1: 1/7

## Cc1cc(O)cc(C)c1C[C@H](N)C(=O)N[C@H](C)C(=O)N[C@@H](Cc1ccccc1)C(=O)NCC(=O)N[C@@H](Cc1ccc(O)cc1)C(=O)N1CCC[C@H]1C(=O)N[C@@H](CC(C)C)C(=O)N[C@@H](Cc1c[nH]c2ccccc12)C(=O)NCc1cc(C(F)(F)F)cc(C(F)(F)F)c1 [AKG118] (H-[Dmt][dA]FGYPLW-{NH(3,5-(CF3)2-benzyl)})
hNK1
  Ki^hNK1/Ki^rNK1: 1/11
MOR
  Ki: 1 nM
  Log[IC50±] (μ): −8.65 ± 0.12
  Ki^μ/Ki^δ: 1/3

## CC(C)C[C@H](NC(=O)[C@@H]1CCCN1C(=O)[C@H](CCC(N)=O)NC(=O)[C@H](Cc1ccccc1)N(C)C(=O)CNC(=O)[C@@H](C)NC(=O)[C@@H](N)Cc1ccc(O)cc1)C(=O)N[C@@H](Cc1c[nH]c2ccccc12)C(=O)NCc1cc(C(F)(F)F)cc(C(F)(F)F)c1 [AKG129]
MOR
  Ki: 7 nM
  Log[IC50±] (μ): −7.84 ± 0.11

## Cc1cc(O)cc(C)c1C[C@H](N)C(=O)N[C@H](C)C(=O)NCC(=O)N(C)[C@@H](Cc1ccccc1)C(=O)N[C@@H](CCC(N)=O)C(=O)N1CCC[C@H]1C(=O)N[C@@H](CC(C)C)C(=O)N[C@@H](Cc1c[nH]c2ccccc12)C(=O)NCc1cc(C(F)(F)F)cc(C(F)(F)F)c1 [AKG141]
hNK1
  Ki^hNK1/Ki^rNK1: 1/10

## CC(C)C[C@H](NC(=O)[C@@H]1CCCN1C(=O)[C@H](CCC(N)=O)NC(=O)[C@H](Cc1ccc(F)cc1)NC(=O)CNC(=O)[C@@H](C)NC(=O)[C@@H](N)Cc1ccc(O)cc1)C(=O)N[C@@H](Cc1c[nH]c2ccccc12)C(=O)NCc1cc(C(F)(F)F)cc(C(F)(F)F)c1 [AKG142]
DOR
  IC50: 3.39 nM
  Ki: 2 nM
MOR
  Ki: 8 nM
  Log[IC50±] (μ): −7.67 ± 0.07

## CC(C)C[C@H](NC(=O)[C@@H]1CCCN1C(=O)[C@H](CCC(N)=O)NC(=O)[C@H](Cc1ccc(F)cc1)N(C)C(=O)CNC(=O)[C@@H](C)NC(=O)[C@@H](N)Cc1ccc(O)cc1)C(=O)N[C@@H](Cc1c[nH]c2ccccc12)C(=O)NCc1cc(C(F)(F)F)cc(C(F)(F)F)c1 [AKG143]
hNK1
  Ki: 3.2 nM
DOR
  IC50: 1.45 nM
  Ki: 0.7 nM
MOR
  Ki: 2 nM
  Log[IC50±] (μ): −8.35 ± 0.07

## Cc1cc(O)cc(C)c1C[C@H](N)C(=O)N[C@H](C)C(=O)NCC(=O)N(C)[C@@H](Cc1ccc(F)cc1)C(=O)N[C@@H](CCC(N)=O)C(=O)N1CCC[C@H]1C(=O)N[C@@H](CC(C)C)C(=O)N[C@@H](Cc1c[nH]c2ccccc12)C(=O)NCc1cc(C(F)(F)F)cc(C(F)(F)F)c1 [AKG144]
DOR
  IC50: 0.437 nM
  Ki: 0.2 nM
MOR
  Ki: 0.5 nM
  Log[IC50±] (μ): −8.94 ± 0.07

## CC(C)C[C@H](NC(=O)[C@@H]1CCCN1C(=O)[C@H](CCCN)NC(=O)[C@H](Cc1ccccc1)N(C)C(=O)CNC(=O)[C@@H](C)NC(=O)[C@@H](N)Cc1ccc(O)cc1)C(=O)N[C@@H](Cc1c[nH]c2ccccc12)C(=O)NCc1cc(C(F)(F)F)cc(C(F)(F)F)c1 [AKG173] (H-Y[dA]G[NMeF][Orn]PLW-{NH(3,5-(CF3)2-benzyl)})
hNK1
  Ki: 15.5 nM
DOR
  IC50: 501 nM
  binding selectivity for DOR over MOR: 100 times
  Ki: 0.05 nM
MOR
  Ki: 5 nM
  Log[IC50±] (μ): −7.95 ± 0.08
  Ki^μ/Ki^δ: 100/1

## CC(C)C[C@H](NC(=O)[C@@H]1CCCN1C(=O)[C@H](CCCCN)NC(=O)[C@H](Cc1ccccc1)N(C)C(=O)CNC(=O)[C@@H](C)NC(=O)[C@@H](N)Cc1ccc(O)cc1)C(=O)N[C@@H](Cc1c[nH]c2ccccc12)C(=O)NCc1cc(C(F)(F)F)cc(C(F)(F)F)c1 [AKG174] (H-Y[dA]G[NMeF]KPLW-{NH(3,5-(CF3)2-benzyl)}; N-terminus assumed)
MOR
  Ki: 8 nM
  Log[IC50±] (μ): −7.81 ± 0.08

## Cc1cc(O)cc(C)c1C[C@H](N)C(=O)N[C@H](C)C(=O)N(C)CC(=O)N[C@@H](Cc1ccccc1)C(=O)N1CCC[C@H]1C(=O)N[C@@H](CC(C)C)C(=O)N[C@@H](Cc1c[nH]c2ccccc12)C(=O)NCc1cc(C(F)(F)F)cc(C(F)(F)F)c1 [AKG180, H-Dmt-D-Ala-NMeGly-Phe-Pro-Leu-Trp-NH-Bn(3′,5′-(CF3)2)]
hNK1
  Ki^hNK1/Ki^rNK1: 1/6

## Cc1cc(O)cc(C)c1C[C@H](N)C(=O)N(C)[C@H](C)C(=O)NCC(=O)N[C@@H](Cc1ccccc1)C(=O)N1CCC[C@H]1C(=O)N[C@@H](CC(C)C)C(=O)N[C@@H](Cc1c[nH]c2ccccc12)C(=O)NCc1cc(C(F)(F)F)cc(C(F)(F)F)c1 [AKG181, H-Dmt-D-NMeAla-Gly-Phe-Pro-Leu-Trp-NH-Bn(3′,5′-(CF3)2)]
hNK1
  Ki^hNK1/Ki^rNK1: 1/5

## Cc1cc(O)cc(C)c1C[C@H](N)C(=O)N(C)[C@H](C)C(=O)N(C)CC(=O)N[C@@H](Cc1ccccc1)C(=O)N1CCC[C@H]1C(=O)N[C@@H](CC(C)C)C(=O)N[C@@H](Cc1c[nH]c2ccccc12)C(=O)NCc1cc(C(F)(F)F)cc(C(F)(F)F)c1 [AKG183, H-Dmt-D-NMeAla-NMeGly-Phe-Pro-Leu-Trp-NH-Bn(3′,5′-(CF3)2)]
hNK1
  Ki^hNK1/Ki^rNK1: 1/7

## Cc1cc(O)cc(C)c1C[C@H](N)C(=O)N(C)[C@H](C)C(=O)NCC(=O)N(C)[C@@H](Cc1ccccc1)C(=O)N1CCC[C@H]1C(=O)N[C@@H](CC(C)C)C(=O)N[C@@H](Cc1c[nH]c2ccccc12)C(=O)NCc1cc(C(F)(F)F)cc(C(F)(F)F)c1 [AKG184, H-Dmt-D-NMeAla-Gly-NMePhe-Pro-Leu-Trp-NH-Bn(3′,5′-(CF3)2)]
hNK1
  Ki^hNK1/Ki^rNK1: 1/40

## Cc1cc(O)cc(C)c1C[C@H](N)C(=O)N(C)[C@H](C)C(=O)N(C)CC(=O)N(C)[C@@H](Cc1ccccc1)C(=O)N1CCC[C@H]1C(=O)N[C@@H](CC(C)C)C(=O)N[C@@H](Cc1c[nH]c2ccccc12)C(=O)NCc1cc(C(F)(F)F)cc(C(F)(F)F)c1 [AKG185, H-Dmt-D-NMeAla-NMeGly-NMePhe-Pro-Leu-Trp-NH-Bn(3′,5′-(CF3)2)]
hNK1
  Ki^hNK1/Ki^rNK1: 1/21

## CC(C)C[C@H](NC(=O)[C@@H]1CCCN1C(=O)[C@H](Cc1ccccc1)N(C)C(=O)[C@H](Cc1ccccc1)NC(=O)[C@@H]1CCCN1C(=O)[C@@H](N)Cc1ccc(O)cc1)C(=O)N[C@@H](Cc1c[nH]c2ccccc12)C(=O)NCc1cc(C(F)(F)F)cc(C(F)(F)F)c1 [AKG224, H-Tyr-Pro-Phe-NMePhe-Pro-Leu-Trp-NH-Bn(3′,5′-(CF3)2)] (H-YPF[NMeF]PLW-{NH(3,5-(CF3)2-benzyl)})
hNK1
  Ki^hNK1/Ki^rNK1: 1/10
